This note sets out measurements from PubChem BioAssay AID977628 (Broad Institute, 2014).

Inconclusive results are not listed. Calls of active or inactive are those of the source.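 How the source made its calls: active means compound lowering the normal-ribosome reporter at least twice as much as the humanized-ribosome reporter, growth loss under a set limit; inconclusive means no clear call, values can overlap the other calls; inactive means the rest.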 Bounds are passed on as bounds.

The experiment has as its system E. coli WT GFP strain growth, fluorescence, 24 h. The experiment in a line: growth of wild-type and h24-humanized E. coli strains – h24 mutant RFP vs wild-type GFP, cherry-pick, dose response (AID 977628).
As to `Fc1ccc(-c2nnc(-c3ccc4ccccc4c3)o2)cc1`, the AC50 is > 100 µM (inactive).

Take `O=C(c1ccccc1)N(c1ccccc1)c1nccc2ccccc12`: the AC50 was > 100 µM (inactive).

Take `Cc1nn(S(=O)(=O)c2ccc(Cl)cc2)c(C)c1Sc1ccc([N+](=O)[O-])cc1`: the AC50 was > 100 µM (inactive).

Turning to `CSc1ccc(CN(C)CC(=O)NC(C)c2ccccc2)cc1` (stereo unspecified), the AC50 was > 100 µM (inactive).

For `C=CCn1c(C)cc(C(=O)COC(=O)CNC(=O)c2ccccc2)c1C`, the AC50 was > 100 µM (inactive).

As to `CCN(CC)S(=O)(=O)c1cccc(NC(=O)CNc2cccc(S(=O)(=O)N3CCCC3)c2)c1`, the AC50 was > 100 µM (inactive).

In the case of `CN(c1ccccc1)S(=O)(=O)c1cccc(C(=O)OCC(=O)NCc2ccco2)c1`, the AC50 is > 100 µM (inactive).

With `CN1C(=O)c2ccccc2OC1(C)Cc1ccccc1` (stereo unspecified), the AC50 is > 100 µM (inactive).

Turning to `O=C(O)c1cc2ccc3ccccc3c2[nH]1`, the AC50 is > 100 µM (inactive).

For the compound `Cc1ccoc1C(=O)Nc1ccc2ccccc2c1`, the AC50 was > 100 µM (inactive).

For `Cc1cc(C)c(S(=O)(=O)NCCOc2ccccc2)c(C)c1-n1cnnn1`, the AC50 was > 100 µM (inactive).

Consider `CCOc1ccc2nc(NC(=O)CSc3nc(SC)ns3)sc2c1`, for which the AC50 is > 100 µM (inactive).

With `O=C(Nc1ccc(S(=O)(=O)N2CCCC2)cc1)c1ccc(OCC2CCCO2)cc1` (stereo unspecified), the AC50 is > 100 µM (inactive).

Take `O=c1[nH]c(C2CCCN(S(=O)(=O)c3ccccc3Cl)C2)nc2c1nnn2Cc1ccc2c(c1)OCCO2` (stereo unspecified): the AC50 is > 100 µM (inactive).

For `CCc1ccc(OCC(=O)NCc2ccco2)c(Br)c1`, the AC50 was > 100 µM (inactive).

In the case of `COc1cc2nc(Nc3ccc(F)cc3)nc(N)c2cc1OC`, the AC50 was > 100 µM (inactive).

In the case of `Cc1ccsc1C(=O)OCC(=O)N1CCc2ccccc2C1`, the AC50 was > 100 µM (inactive).

As for `O=C(c1cc(COc2c(F)cccc2F)on1)N1C[C@H]2CC[C@H]1C2`, the AC50 was > 100 µM (inactive).

Regarding `CC(NCc1ccc(S(N)(=O)=O)cc1)C(=O)Nc1cc([N+](=O)[O-])ccc1Cl` (stereo unspecified), the AC50 was > 100 µM (inactive).

On to `CC(C)C[C@@H](CSc1ccccc1)N1CCN(CC(C)C)CCC1=O`, for which the AC50 was > 100 µM (inactive).

Consider `CCOC(=O)c1cccc(OS(=O)(=O)Cc2ccccc2)c1`, for which the AC50 was > 100 µM (inactive).

As to `Cc1ccc(Cl)cc1N1CCN(C(=O)c2ccc3nc[nH]c3c2)CC1`, the AC50 is > 100 µM (inactive).

As for `CC1(C(=O)NS(=O)(=O)c2cccs2)CCN1C(=O)C1(c2ccc(Cl)cc2)CCC1` (stereo unspecified), the AC50 was > 100 µM (inactive).

As to `COCCCn1c(C)cc(C(=O)COC(=O)CCc2nc3ccccc3c(=O)[nH]2)c1C`, the AC50 was > 100 µM (inactive).

For `O=C(Nc1ccc2c(c1)OCO2)c1ccc([N+](=O)[O-])cc1[N+](=O)[O-]`, the AC50 is > 100 µM (inactive).

Take `O=C(c1ccc(Cl)cc1)N1CCN(c2cccc3[nH]ccc23)CC1`: the AC50 was > 100 µM (inactive).

In the case of `CCN(c1cccc2ccccc12)S(=O)(=O)c1ccc(Cl)nc1`, the AC50 was > 100 µM (inactive).

On to `CCC(C(=O)NCCc1ccc(C)cc1)n1nc(C)c2c(C)n(-c3ccccc3)nc2c1=O` (stereo unspecified), for which the AC50 is > 100 µM (inactive).

Regarding `COc1ccc2c(c1)c(C(C)=O)c(C)n2CCc1ccc(OC)c(OC)c1`, the AC50 was > 100 µM (inactive).

Take `Cc1cccc(S(=O)(=O)NC(=O)C2(C)CCN2C(=O)c2ccccc2CCc2ccccc2)c1` (stereo unspecified): the AC50 was > 100 µM (inactive).

With `COc1ccc(CNS(=O)(=O)c2ccc3c(c2)NC(=O)C(C)S3)cc1` (stereo unspecified), the AC50 was > 100 µM (inactive).

For the compound `O=C(Cc1cccc(NC(=O)C2CCN(C(=O)CCc3ccccc3)CC2)c1)Nc1cccc(C(=O)N2CCCC2)c1`, the AC50 was > 100 µM (inactive).

Turning to `CCOC(=O)Cc1csc(NC(=O)c2cc3ccccc3o2)n1`, the AC50 is > 100 µM (inactive).

With `O=C(Nc1cccc(-c2cn3ccccc3n2)c1)c1ccccc1`, the AC50 was > 100 µM (inactive).

With `O=C1NC(=O)C2(Cc3cc([N+](=O)[O-])ccc3N3CCN(C(=O)c4ccccc4)CC32)C(=O)N1` (stereo unspecified), the AC50 is > 100 µM (inactive).

As for `COc1cc(SC)ccc1C(=O)N1CCN(c2ccccc2F)CC1`, the AC50 was > 100 µM (inactive).

Take `CC(C)=C(c1ccc(Cl)cc1)c1c(N)ncnc1N`: the AC50 is > 100 µM (inactive).

Turning to `S=c1[nH]nc(-c2ccc3ccccc3n2)n1-c1ccc2c(c1)OCCO2`, the AC50 is > 100 µM (inactive).

Consider `CC(=O)c1cccc(NC(=O)COC(=O)CCC(=O)c2ccc(F)cc2)c1`, for which the AC50 is > 100 µM (inactive).

In the case of `COc1ccc(NC(=O)CN(C)C(=O)c2cc(C3CC3)nn2-c2ccccc2)cc1`, the AC50 was > 100 µM (inactive).

Regarding `COc1ccc(C(=O)N(c2ccccc2)c2nccc3ccccc23)cc1OC`, the AC50 is > 100 µM (inactive).

Regarding `COc1ccc(CNc2ncnc3cc(OC)c(OC)cc23)cc1OC`, the AC50 was > 100 µM (inactive).

Turning to `Cc1cc(C(=O)NCCC2=CCCCC2)ccc1[N+](=O)[O-]`, the AC50 was > 100 µM (inactive).

On to `COc1ccc(-c2cc(C(=O)N3CCc4ccccc4C3)no2)cc1`, for which the AC50 was > 100 µM (inactive).

With `Nc1nc(=S)ss1`, the AC50 is > 100 µM (inactive).

As to `COc1cc(NC(=O)C(c2ccccc2)c2ccccc2)c(C(=O)O)cc1OC`, the AC50 was > 100 µM (inactive).

On to `COc1ccccc1-c1cc2nc(NCCc3ccncc3)ccn2n1`, for which the AC50 is > 100 µM (inactive).

As for `CC(Nc1ncnc2ccccc12)c1ccccc1` (stereo unspecified), the AC50 was > 100 µM (inactive).

Turning to `COc1ccccc1-n1c(Cc2ccccc2)nc2ccccc2c1=O`, the AC50 was > 100 µM (inactive).

Consider `COc1cc2[nH]c(=S)nc(NCCc3ccc(C)cc3)c2cc1OC`, for which the AC50 was > 100 µM (inactive).

Regarding `Cc1nnn(C23C[C@@H]4C[C@@H](CC(C(=O)N5CCN(c6ccccc6)CC5)(C4)C2)C3)n1`, the AC50 is > 100 µM (inactive).

Consider `CSc1ccccc1NC(=O)CN(c1cccc(C)c1)S(C)(=O)=O`, for which the AC50 is > 100 µM (inactive).

For `COc1cccc(NC(=O)C2CCC(CNS(=O)(=O)c3cccs3)CC2)c1` (stereo unspecified), the AC50 is > 100 µM (inactive).

In the case of `CCOC(=O)c1cnc2c(ccc3ccccc32)c1NCCCN(C)C`, the AC50 was > 100 µM (inactive).

On to `CSc1cccc(NC(=O)CSc2nc3ccccc3o2)c1`, for which the AC50 was > 100 µM (inactive).

`COc1ccc2nc(SCC(=O)Nc3ccccc3)[nH]c2c1`: the AC50 was > 100 µM (inactive).

On to `Cc1ccc(C(=O)C2CCN(CC(=O)Nc3nc(C)cs3)CC2)cc1`, for which the AC50 is > 100 µM (inactive).

Regarding `COc1ccc(NS(=O)(=O)c2cc(NC(=O)CNC(=O)c3cccc(OC)c3)ccc2C)cc1`, the AC50 was > 100 µM (inactive).

As for `COc1cccc(NC(=O)c2ccc(-c3ccc([N+](=O)[O-])cc3)o2)c1`, the AC50 is > 100 µM (inactive).

On to `Cc1cc(Br)ccc1NC(=O)c1ccco1`, for which the AC50 was > 100 µM (inactive).

Consider `O=C(CSc1ccccc1)Nc1cccc(NC(=O)c2ccco2)c1`, for which the AC50 is > 100 µM (inactive).

Regarding `CCCn1nnnc1NCc1ccccc1OCc1cccs1`, the AC50 was > 100 µM (inactive).

Regarding `CC(=O)Oc1ccc(N(C(C)=O)S(=O)(=O)c2ccc(C)cc2)c2ccccc12`, the AC50 was > 100 µM (inactive).

Regarding `COc1ccc2[nH]cc(CCNC(=O)C3CC(=O)N(c4ccc(Cl)cc4)C3)c2c1` (stereo unspecified), the AC50 was > 100 µM (inactive).

For the compound `O=C(CN1c2ccccc2S(=O)(=O)c2ccccc21)NCc1ccc(F)cc1`, the AC50 is > 100 µM (inactive).

Consider `COc1cccc(CNC(=O)CCSCc2ccccc2F)c1`, for which the AC50 is > 100 µM (inactive).

For the compound `O=C(CCCOc1ccc(Cl)cc1Cl)Nc1ccccc1C(=O)O`, the AC50 is > 100 µM (inactive).

Take `COc1cccc(Nc2nc(N)c([N+](=O)[O-])c(NCc3ccccc3)n2)c1`: the AC50 was > 100 µM (inactive).

Regarding `O=C(Cc1coc2ccc3ccccc3c12)NCc1ccccc1`, the AC50 is > 100 µM (inactive).

As for `CC1C=Cc2ccccc2N1C(=O)c1ccccc1` (stereo unspecified), the AC50 was > 100 µM (inactive).

For `COc1ccc(Cn2c(=O)c3[nH]cnc3n(-c3ccc(C)cc3)c2=O)cc1`, the AC50 is > 100 µM (inactive).

For the compound `Cc1cc(C(=O)Nc2cccc3c2O[C@H](CN(C)S(=O)(=O)c2ccc(Cl)cc2)[C@H](C)CN([C@H](C)CO)C3=O)n(C)n1`, the AC50 was > 100 µM (inactive).

As to `COc1cccc(OC)c1OCCCOc1cccc2cccnc12`, the AC50 was > 100 µM (inactive).

Turning to `O=C(CCc1nc2ccccc2s1)OCC(=O)c1ccc[nH]1`, the AC50 was > 100 µM (inactive).

As to `O=C(C[n+]1cc(-c2ccc(Cl)c(Cl)c2)n2c1CCC2)OCc1ccccc1`, the AC50 was > 100 µM (inactive).

For `Cc1ccccc1OCC(O)Cn1c(NCc2ccco2)nc2c1c(=O)n(C)c(=O)n2C` (stereo unspecified), the AC50 is > 100 µM (inactive).

Take `COc1ccc(C(=O)c2c(C)oc3ccc(O)cc23)cc1`: the AC50 was > 100 µM (inactive).

Turning to `O=C(Cc1cccc2ccccc12)Nc1ccccc1C(=O)O`, the AC50 was > 100 µM (inactive).

For `c1ccc(SCc2nc3ccccc3s2)nc1`, the AC50 was > 100 µM (inactive).

Turning to `COCc1nnc(NC(=O)c2ccc(S(=O)(=O)N3CCCC3)cc2)o1`, the AC50 is > 100 µM (inactive).

As for `CCOC(=O)c1cc(C)nc(N2CCCCC2)c1C#N`, the AC50 is > 100 µM (inactive).

As for `Cc1sc(NC(=O)CN2CCOCC2)nc1-c1ccc2c(c1)CCN2S(=O)(=O)c1ccccc1`, the AC50 is > 100 µM (inactive).

Take `COc1ccc(CNc2cc([N+](=O)[O-])ccc2OC)cc1`: the AC50 is > 100 µM (inactive).

With `CC(=O)N1CCN(c2nc(-c3cccs3)nc3ccccc23)CC1`, the AC50 was > 100 µM (inactive).

Turning to `O=S(=O)(c1ccc(Cl)cc1)N1CCN=C1SCc1cccc(Cl)c1`, the AC50 was > 100 µM (inactive).

Turning to `COc1ccccc1CNC(=O)CSc1ccc(C)cc1`, the AC50 is > 100 µM (inactive).

What is called AC50 is the midpoint of the concentration-response curve, whichever way the signal moves.
